Measured values reported in patent US4839350A, “Cephalosporin compounds and the production thereof” (Meiji Seika Kaisha, Ltd., priority 1984, dated 1989).
Where a name gives a salt, the structure may show the parent alone. Read-outs that look alike come from different tables or passages of the source.

Tests used:
Assay type in all cases: cell-based
[1] = system: Staphylococcus aureus 209P JC-1; test: MIC by agar-dilution method, Staphylococcus aureus 209P JC-1
Source text: (§1) The compounds of this invention are all novel compounds.

[2] = system: Staphylococcus aureus Smith; test: MIC by agar-dilution method, Staphylococcus aureus Smith
Source text: as §1

[3] = system: Escherichia coli NIHJ JC-2; test: MIC by agar-dilution method, Escherichia coli NIHJ JC-2
Source text: as §1

[4] = system: Klebsiella pneumoniae PCI 602; test: MIC by agar-dilution method, Klebsiella pneumoniae PCI 602
Source text: as §1

Proteus mirabilis GN 79 = test: MIC by agar-dilution method, Proteus mirabilis GN 79
Source text: as §1

Proteus vulgaris GN 76 = test: MIC by agar-dilution method, Proteus vulgaris GN 76
Source text: as §1

Proteus rettgeri GN 624 = test: MIC by agar-dilution method, Proteus rettgeri GN 624
Source text: as §1

[5] = system: Salmonella typhimurium LT-2; test: MIC by agar-dilution method, Salmonella typhimurium LT-2
Source text: as §1

[6] = system: Serratia marcescens No. 1; test: MIC by agar-dilution method, Serratia marcescens No. 1
Source text: as §1

[7] = system: Pseudomonas aeruginosa MB 3833; test: MIC by agar-dilution method, Pseudomonas aeruginosa MB 3833
Source text: as §1

[8] = Providencia rettgeri, GN624, read-out: MIC.
[9] = Salmonella enterica, read-out: MIC.

| Compound | MIC ([1]; read-out: MIC.) [µg/mL] | MIC ([2]; read-out: MIC.) [µg/mL] | MIC ([3]; NIHJJC2, read-out: MIC.) [µg/mL] | MIC ([4]; PCI602, read-out: MIC.) [µg/mL] | MIC (Proteus mirabilis GN 79; GN79, read-out: MIC.) [µg/mL] | MIC (Proteus vulgaris GN 76; GN76, read-out: MIC.) [µg/mL] | MIC (Proteus rettgeri GN 624; [8]) [µg/mL] | MIC [5, 9] [µg/mL] | MIC ([6]; read-out: MIC.) [µg/mL] | MIC ([7]; MB3833, read-out: MIC.) [µg/mL] | MIC [1] [µg/mL] | MIC [2] [µg/mL] | MIC [3] [µg/mL] | MIC [4] [µg/mL] | MIC (Proteus mirabilis GN 79) [µg/mL] | MIC (Proteus vulgaris GN 76) [µg/mL] | MIC (Proteus rettgeri GN 624) [µg/mL] | MIC [5] [µg/mL] | MIC [6] [µg/mL] | MIC [7] [µg/mL] |
| --- | --- | --- | --- | --- | --- | --- | --- | --- | --- | --- | --- | --- | --- | --- | --- | --- | --- | --- | --- | --- |
| CO/N=C(\C(=O)NC1C(=O)N2C(C(=O)O)=C(C=Cc3sc[n+](C)c3C)CSC12)c1csc(N)n1 (stereo not drawn) [Example 15, 7-[2-methoxyimino-2-(2-aminothiazol-4-yl)acetamido]-3-[2-(3,4-dimethyl-5-thiazolio)vinyl]-3-cephem-4-carboxylic acid di-trifluoroacetate (syn-isomer)] | 0.78 | 0.78 | 0.1 | 0.1 | 0.78 | 0.39 | 0.39 | 0.1 | 0.1 | > 50 | – | – | – | – | – | – | – | – | – | – |
| CO/N=C(\C(=O)NC1C(=O)N2C(C(=O)O)=C(/C=C\c3sc(Cl)nc3Cl)CSC12)c1csc(N)n1 (stereo not drawn) [Example 34, 7-[2-methoxyimino-2-(2-aminothiazol-4-yl)acetamido]-3-[2-(2,4-dichlorothiazol-5-yl)vinyl]-3-cephem-4-carboxylic acid sodium salt (syn-isomer, cis-isomer)] | 0.2 | 0.2 | 3.13 | 3.13 | 0.78 | 1.56 | 1.56 | 3.13 | 1.56 | 100 | – | – | – | – | – | – | – | – | – | – |
| Cc1ncsc1C=CC1=C(C(=O)O)N2C(=O)C(NC(=O)C(=NOCC(=O)O)c3csc(N)n3)C2SC1.O=C(O)C(F)(F)F (single isomer, unassigned) [Example 16, 7-[2-carboxymethoxyimino-2-(2-aminothiazol-4-yl)acetamido]-3-[2-(4-methylthiazol-5yl)vinyl]-3-cephem-4-carboxylic acid trifluoroacetate (syn-isomer, trans-isomer)] | – | – | – | – | – | – | – | – | – | – | 3.13 | 3.13 | 0.39 | 0.20 | 0.05 | ≤ 0.025 | 1.56 | 0.10 | 0.05 | 12.5 |
| CO/N=C(\C(=O)NC1C(=O)N2C(C(=O)O)=C(/C=C/c3cnc(C)s3)CSC12)c1csc(N)n1 (stereo not drawn) [Example 30, 7-[2-methoxyimino-2-(2-aminothiazol-4-yl)acetamido]-3-[2-(2-methylthiazol-5-yl)vinyl]-3-cephem-4-carboxylic acid trifluoroacetate (syn-isomer, trans-isomer)] | 0.78 | 1.56 | 0.78 | 0.78 | 0.2 | 0.1 | 0.2 | 0.39 | 0.2 | > 50 | – | – | – | – | – | – | – | – | – | – |
| CO/N=C(\C(=O)NC1C(=O)N2C(C(=O)O)=C(/C=C/c3scnc3C)CSC12)c1csc(N)n1 (stereo not drawn) [Example 18, 7-[2-methoxyimino-2-(2-aminothiazol-4-yl)acetamido-3-[2-(4-methylthiazol-5-yl)vinyl]-3cephem-4-carboxylic acid sodium salt (syn-isomer, trans-isomer)] | 0.39 | 0.39 | 0.78 | 0.39 | – | 0.1 | 0.39 | 0.78 | 0.39 | 50 | – | – | – | – | – | – | – | – | – | – |
| CO/N=C(\C(=O)NC1C(=O)N2C(C(=O)O)=C(/C=C\c3cncs3)CSC12)c1csc(N)n1 (stereo not drawn) [Example 33, 7-[2-methoxyimino-2-(2-aminothiazol-4-yl)acetamido]-3-[2-(thiazol-5-yl)vinyl]-3-cephem-4-carboxylic acid sodium salt (syn-isomer, cis-isomer)] | 0.39 | 0.39 | 0.39 | 0.2 | 0.39 | 0.1 | 0.78 | 0.39 | 0.39 | 25 | – | – | – | – | – | – | – | – | – | – |
| CO/N=C(\C(=O)NC1C(=O)N2C(C(=O)O)=C(/C=C\c3ccccc3)CSC12)c1csc(N)n1 (stereo not drawn) [Example 11, 7-[2-methoxyimino-2-(2-aminothiazol-4-yl)acetamido]-3-(2-phenylvinyl)-3-cephem-4-carboxylic acid trifluoroacetate (cyn-isomer, cis-isomer)] | 0.78 | 0.78 | 3.13 | 3.13 | 0.78 | 0.78 | 3.13 | 6.25 | 1.56 | > 50 | – | – | – | – | – | – | – | – | – | – |
| CO/N=C(\C(=O)NC1C(=O)N2C(C(=O)O)=C(/C=C/c3ccc([N+](=O)[O-])o3)CSC12)c1csc(N)n1 (stereo not drawn) [Example 13, 7-[2-methoxyimino-2-(2-aminothiazol-4-yl)acetamido]-3-[2-(5-nitor-2-furyl)vinyl]-3-cephem-4-carboxylic acid sodium salt (syn-isomer, trans-isomer)] | 6.25 | 6.25 | 6.25 | 3.13 | 12.5 | 3.13 | 3.13 | 6.25 | 6.25 | > 50 | – | – | – | – | – | – | – | – | – | – |
| CO/N=C(\C(=O)NC1C(=O)N2C(C(=O)O)=C(/C=C\c3cnc(C)s3)CSC12)c1csc(N)n1 (stereo not drawn) [Example 31, 7-[2-methoxyimino-2-(2-aminothiazol-4-yl)acetamido]-3-[2-(2-methylthiazol-5-yl)vinyl]-3-cephem-4-carboxylic acid trifluoroacetate (syn-isomer, cis-isomer)] | 0.78 | 1.56 | 1.56 | 1.56 | 0.78 | 0.2 | 0.78 | 1.56 | 0.78 | > 50 | – | – | – | – | – | – | – | – | – | – |

Results, then the compound that gave them:

| MIC ([1]; read-out: MIC.) [µg/mL] | MIC ([2]; read-out: MIC.) [µg/mL] | MIC ([3]; NIHJJC2, read-out: MIC.) [µg/mL] | MIC ([4]; PCI602, read-out: MIC.) [µg/mL] | MIC (Proteus mirabilis GN 79; GN79, read-out: MIC.) [µg/mL] | MIC (Proteus vulgaris GN 76; GN76, read-out: MIC.) [µg/mL] | MIC (Proteus rettgeri GN 624; [8]) [µg/mL] | MIC [5, 9] [µg/mL] | MIC ([6]; read-out: MIC.) [µg/mL] | MIC ([7]; MB3833, read-out: MIC.) [µg/mL] | MIC [1] [µg/mL] | MIC [2] [µg/mL] | MIC [3] [µg/mL] | MIC [4] [µg/mL] | MIC (Proteus mirabilis GN 79) [µg/mL] | MIC (Proteus vulgaris GN 76) [µg/mL] | MIC (Proteus rettgeri GN 624) [µg/mL] | MIC [5] [µg/mL] | MIC [6] [µg/mL] | MIC [7] [µg/mL] | Compound |
| --- | --- | --- | --- | --- | --- | --- | --- | --- | --- | --- | --- | --- | --- | --- | --- | --- | --- | --- | --- | --- |
| 0.39 | 0.78 | 1.56 | 1.56 | – | 0.1 | 6.25 | 0.78 | 0.78 | 100 | – | – | – | – | – | – | – | – | – | – | CO/N=C(\C(=O)NC1C(=O)N2C(C(=O)O)=C(/C=C\c3cscn3)CSC12)c1csc(N)n1 (stereo not drawn) [Example 32, 7-[2-methoxyimino-2-(2-aminothiazol-4-yl)acetamido]-3-[2-(thiazol-4-yl)vinyl]-3-cephem-4-carboxylic acid sodium salt (syn-isomer, cis-isomer)] |
| 0.39 | 0.78 | 3.13 | 1.56 | 0.78 | 0.39 | 3.13 | 1.56 | 1.56 | > 50 | – | – | – | – | – | – | – | – | – | – | CO/N=C(\C(=O)NC1C(=O)N2C(C(=O)O)=C(/C=C\c3ccco3)CSC12)c1csc(N)n1 (stereo not drawn) [Example 12, 7-[2-methoxyimino-2-(2-aminothiazol-4-yl)acetamido]-3-[2-(2-furyl)vinyl]-3-cephem-4-carboxylic acid sodium salt (cyn-isomer, cis-isomer)] |
| 0.2 | 0.39 | 0.39 | 0.39 | 0.39 | 0.2 | 3.13 | 0.39 | 0.39 | 25 | – | – | – | – | – | – | – | – | – | – | CO/N=C(\C(=O)NC1C(=O)N2C(C(=O)O)=C(/C=C\c3scnc3C)CSC12)c1csc(N)n1 (stereo not drawn) [Example 10, 7-[2-methoxyimino-2-(2-aminothiazol-4-yl)acetamido]-3-[2-(4-methylthiazol-5-yl)vinyl]-3-cephem-4-carboxylic acid trifluoroacetate (cyn-isomer, cis-isomer)] |
| 0.2 | 0.39 | 3.13 | 3.13 | 0.2 | 0.2 | 1.56 | 3.13 | 1.56 | > 50 | – | – | – | – | – | – | – | – | – | – | CO/N=C(\C(=O)NC1C(=O)N2C(C(=O)O)=C(C=Cc3ccccc3F)CSC12)c1csc(N)n1 (mixture of isomers) [Example 14, 7-[2-methoxyimino-2-(2-aminothiazol-4-yl)acetamido]-3-[2-(o-fluorophenyl)vinyl]-3-cephem-4-carboxylic acid trifluoroacetate (syn-isomer, mixed cis- and trans-isomers)] |
| 0.1 | 0.2 | 0.2 | 0.1 | 0.2 | 0.1 | 1.56 | 0.2 | 0.2 | 12.5 | – | – | – | – | – | – | – | – | – | – | CO/N=C(\C(=O)NC1C(=O)N2C(C(=O)O)=C(/C=C\c3scnc3Cl)CSC12)c1csc(N)n1 (stereo not drawn) [Example 21, 7-[2-methoxyimino-2-(2-aminothiazol-4-yl)acetamido]-3-[2-(4-chlorothiazol-5-yl)vinyl]-3-cephem-4-carboxylic acid (syn-isomer, cis-isomer) sodium salt] |
